# Data reported in patent US20060229356A1, “Use of indomethacin and derivatives as broad-spectrum antiviral drugs and corresponding pharmaceutical compositions” (priority 2003, published 2006).
# Values joined by “and” are separate entries in the source; they are usually repeats but may differ in a detail not shown here. Equal values may be shown once.
# Legend:
# [1] = system: paramyxovirus (Sendai, SV); experiment: Sendai virus (SV) replication in 37RC cells, hemagglutination assay; assay type: cell-based; settings: for Virus yield: Table 2, SV; for Reduction of virus production: paramyxovirus, each agent given separately
# [2] = system: Herpes Simplex type 1 virus (HSV-1); experiment: HSV-1 replication in HEp-2 cells, CPE50% assay; assay type: cell-based, Herpes Simplex virus type 1
# [3] = system: transcription factor HSF (Heat Shock Factor); experiment: Activation of HSF (Heat Shock Factor); assay type: cell-based; settings: at the active antiviral concentrations, data not shown
# [4] = system: 37RC cells infected with SV; experiment: Cytoprotective effect in SV-infected 37RC cells (FIG. 1); assay type: cell-based, monkey; settings: 37RC cells infected with SV for 24 hours, 400 microM INDO
# Protocol: (§1) FIGS. 1 and 2 show the cytoprotective effect of INDO. Cells were infected as described in example 1.
# FIG. 1A: 37RC cells non infected (control); FIG. 1B: 37RC cells infected with SV for 24 hours non treated (SV); FIG. 1C: 37RC cells infected with SV for 24 hours and treated with 400 microM INDO (SV+INDO).
# [5] = system: Vesicular Stomatitis Virus (VSV); settings: VSV infection; cited from earlier work
# [6] = system: coxsackie virus; settings: cited from earlier work
# [7] = system: influenza A virus (WSN strain); experiment: Influenza A virus (WSN) replication in A549 cells, hemagglutination assay; assay type: cell-based; settings: for Virus yield: Table 2, WSN; for Decrease of virus production: influenza virus, each agent given separately
# [8] = system: A-72 cells infected with CCoV; experiment: Cytoprotective effect in CCoV-infected A-72 cells (FIG. 2); assay type: cell-based, canine; settings: A-72 cells infected with CCoV for 24 hours, 400 microM INDO
# Protocol: as §1
# FIG. 2A: A-72 cells non infected (control); FIG. 2B: A-72 cells infected with CCoV for 24 hours non treated (CCoV); FIG. 2C: A-72 cells infected with CCoV for 24 hours and treated with 400 microM INDO (CCoV+INDO).
# [9] = system: rotavirus (SA-11 strain); experiment: Rotavirus (SA-11) replication in MA104 cells, hemagglutination assay; assay type: cell-based; settings: MA104, 24 h, read-out: IC50 (50% reduction of the virus titer)
# [10] = system: herpesviruses; settings: some herpesviruses; cited from earlier work
# [11] = system: transcription factor NF-κB; experiment: Activation of NF-κB induced by viral infection; assay type: cell-based; settings: at the active antiviral concentrations, data not shown
# [12] = system: HIV-1; settings: HIV-1 infection; cited from earlier work
# [13] = system: host cell
# [14] = system: virion; experiment: Addition to the virus suspension or during virus adsorption; assay type: cell-based; settings: INDO 5-10 mM, any of the viruses indicated
# [15] = system: poxvirus; settings: cited from earlier work
# [16] = system: GRP78/BiP; experiment: Synthesis of stress protein GRP78/BiP; assay type: cell-based
# [17] = system: coronavirus (CCoV, S-378 strain); experiment: Coronavirus (CCoV) replication in A-72 cells, CPE50% assay; assay type: cell-based
smiles,measurement,setting,value
"CCCCC/C=C/C=C1/C(=O)C=C[C@@H]1C/C=C\CCCC(=O)O [15dx-PGJ2, 15deoxy-Δ^12-14-PGJ2]",Virus yield,[1]; 15dx-PGJ2 alone 1 μM,37 % of control
same,Reduction of virus production,[1],63%
CCCCC[C@H](O)/C=C/[C@H]1C=CC(=O)[C@@H]1CCCCCCC(=O)O [PGA1],Virus yield,"[2]; Table 2, HSV-1, PGA1 alone 25 μM",9 % of control
"COc1ccc2c(c1)c(CC(=O)O)c(C)n2C(=O)c1ccc(Cl)cc1 [INDO, Indomethacin]",Activation of HSF (Heat Shock Factor),[3],does not activate
same,Protective effect on cellular damage (cytopathic effect) caused by virus,[4],protected from the destructive cytopathic effect
same,Antiviral effect (literature),[5],antiviral effect
same,Antiviral effect (literature),[6],no antiviral effect or to worsen the infection
same,Effect at 48 hours after infection,[7],lost its effect
same,IC50,"[7]; Influenza A virus, WSN, A549, 24 h, read-out: IC50 (50% reduction of the virus titer)",400 µM
same,Virus yield,[7]; INDO alone 200 μM,75 % of control
same,Virus yield,[7]; INDO alone 400 μM,67 % of control
same,Decrease of virus production,[7],approximately 30%
same,Protective effect on cellular damage (cytopathic effect) caused by virus,[8],protected from the destructive cytopathic effect
same,IC50,[9],< 25 µM
same,Antiviral effect (literature),[10],antiviral effect
same,Inhibition of NF-κB activation induced by the viral infection,[11],does not inhibit
same,Antiviral effect (literature),[12],antiviral effect
same,Concentrations non-toxic for the host cell,[13],10 to 800 µM
same,IC50,"[1]; Respirovirus muris, 24 h, read-out: IC50 (50% reduction of the virus titer)",130 µM
same,Virus yield,[1]; INDO alone 100 μM,50 % of control and 60 % of control
same,Reduction of virus production,[1],40%
same,Effect on virus replication when added to the virus suspension or during virus adsorption,[14],no effect
same,Antiviral effect (literature),[15],no antiviral effect or to worsen the infection
same,Synthesis of endoplasmic reticulum stress protein GRP78/BiP,[16],observed the synthesis
same,Virus yield,"[2]; Table 2, HSV-1, INDO alone 25 μM",28.2 % of control and 38.1 % of control
same,Virus yield,"[2]; Table 2, HSV-1, INDO alone 100 μM",9.7 % of control
same,IC50,"[17]; A-72, 24 h, read-out: IC50 (50% reduction of the virus titer)",< 50 µM
same,inhibition at 50 µM,"[17]; A-72, coronavirus, INDO 50 microM, read-out: Inhibition of virus production as compared to control",> 90%
"NC(=O)c1ncn([C@@H]2O[C@H](CO)[C@@H](O)[C@H]2O)n1 [RIB, ribavirin]",Virus yield,[7]; RIB alone 50 μM,58 % of control
[Cl-].[Cl-].[Zn+2] [ZnCl2],Virus yield,[7]; ZnCl2 alone 50 μM,67 % of control
same,Virus yield,[1]; ZnCl2 alone 50 μM,60 % of control
same,Virus yield,"[2]; Table 2, HSV-1, ZnCl2 alone 50 μM",8.3 % of control
CCCCC[C@H](O)C/C=C1/C(=O)C=C[C@@H]1C/C=C\CCCC(=O)O [Δ^12-PGJ2],Virus yield,[7]; Δ^12-PGJ2 alone 5 μM,67 % of control
same,Decrease of virus production,[7],approximately 30%
"Nc1nc2c(ncn2COCCO)c(=O)[nH]1 [ACY, acyclovir]",Virus yield,"[2]; Table 2, HSV-1, ACY alone 1 μM",7.7 % of control
